The numbers were not newly measured in patent US7718634B2, “Method of treatment using bisphosphonic acid” (Hoffman-La Roche Inc., priority 2002, dated 2010), which cites them from elsewhere.

For one data set, the system named is bone resorption. The note with it: animal models of bone resorption.

On to `CCCCCN(C)CCC(O)(P(=O)(O)O)P(=O)(O)O` [ibandronate, 1-hydroxy-3-(N-methyl-N-pentyl)aminopropylidene-1,1-bisphosphonic acid], for which the number of osteoclasts result in the data set on osteoclasts (at high doses) was “reduces the number of osteoclasts”. In the data set with osteoclasts (in vivo), the “bone resorption and mineralization” value is on record as “inhibits bone resorption without any impairment of mineralization”; the osteoclastic activity result is recorded as “decrease osteoclastic activity”. Further, the “times more potent than alendronate” value in the data set on bone resorption (relative to alendronate) is listed as 10 times. Moreover, the “times more potent than clodronate” value with bone resorption (relative to clodronate) was 500 times. Also, the “times more potent than pamidronate” value with bone resorption (relative to pamidronate) is 50 times. Besides, in the data set with bone resorption (relative to risedronate), the “times more potent than risedronate” value is 2 times.
